Data as given in patent US8388963B2, “Antitumor combinations containing a VEGF-inhibiting agent and 5FU or a derivative thereof” (Aventis Pharma SA, priority 2004, dated 2013).
Like-named read-outs stand apart in the source and are kept apart here.

Experiments:
[1] = type: in vivo
MC 13/C mammary tumor = test: antitumor activity on subcutaneously transplanted mammary tumor in mice (study BCM-1428)
Experimental: A product is considered to be active if log10 killed cells is greater than or equal to 0.7. A product is considered to be very active if the log10 killed cells is greater than 2.8.
30 to 60 mg of an MC 13/C mammary tumor fragment are transplanted bilaterally, subcutaneously, into the animals subjected to the experiment, generally mice, on day 0. The animals bearing the tumors are randomized before being subjected to the various treatments and controls. In the case of treatment of advanced tumors, the tumors are left to develop until the desired size, the animals having insufficiently developed tumors being eliminated. The animals selected are divided up randomly so as to undergo the treatments and the controls. […] The chemotherapy generally begins from 3 to 22 days after the tumor transplant, according to the type of tumor, and the animals are observed every day. The various groups of animals are weighed three or four times a week until the maximum weight loss is obtained, and then the groups are weighed at least once a week until the end of the trial.
The tumors are measured two or three times a week until the tumor reaches approximately 2 g or until the animal's death if the latter occurs before the tumor reaches 2 g. The animals are autopsied when they are sacrificed.
The antitumor activity is determined as a function of the various parameters recorded.
0.2 ml per mouse is prepared, according to the usual technique, for intravenous administration, from a commercial solution of 5 cm^3 containing 250 mg of 5 FU to be diluted with 5% glucose in water.
These solutions are administered simultaneously, after suitable dilution, by infusion.

[2] = iv 5-FU 34.6 mg/kg/day (total 103.8), days 4,11,18
[3] = iv 5-FU 55.8 mg/kg/day (total 167.4), days 4,11,18
[4] = iv 5-FU 90 mg/kg/day (total 270), days 4,11,18
[5] = iv 5-FU 145 mg/kg/day (total 435), days 4,11,18
[6] = sc VEGF-Trap 2.5 mg/kg/day (total 15), days 4,7,11,14,18,21
[7] = sc VEGF-Trap 10 mg/kg/day (total 60), days 4,7,11,14,18,21
[8] = sc VEGF-Trap 25 mg/kg/day (total 150), days 4,7,11,14,18,21
[9] = sc VEGF-Trap 40 mg/kg/day (total 240), days 4,7,11,14,18,21

Compound: O=c1[nH]cc(F)c(=O)[nH]1 [5-FU, 5-fluorouracil, reference compound]
- % weight loss at the lowest point [1, 2]: +2.3%
- Death due to the treatment [1, 2]: 0/5
- % weight loss at the lowest point [1, 3]: 1.1%
- Death due to the treatment [1, 3]: 0/5
- % weight loss at the lowest point [1, 4]: 4.8%
- Death due to the treatment [1, 4]: 0/5
- % weight loss at the lowest point [1, 5]: 8.7%
- Death due to the treatment [1, 5]: 1/5
- % T/C (inhibition of tumor growth at day 24) (MC 13/C mammary tumor; [2]): 34%
- T-C days (delay of tumor growth) (MC 13/C mammary tumor; [2]): 4.6 days
- lck (log cells killed) (MC 13/C mammary tumor; [2]): 0.5
- % T/C (inhibition of tumor growth at day 24) (MC 13/C mammary tumor; [3]): 12%
- T-C days (delay of tumor growth) (MC 13/C mammary tumor; [3]): 7.8 days
- lck (log cells killed) (MC 13/C mammary tumor; [3]): 0.8
- % T/C (inhibition of tumor growth at day 24) (MC 13/C mammary tumor; [4]): 0%
- T-C days (delay of tumor growth) (MC 13/C mammary tumor; [4]): 12.5 days
- lck (log cells killed) (MC 13/C mammary tumor; [4]): 1.3
- % T/C (inhibition of tumor growth at day 24) (MC 13/C mammary tumor; [5]): Toxic

Compound: VEGF-Trap: fusion protein: VEGFR1 signal sequence, Ig domain D2 of VEGFR1, Ig domain D3 of VEGFR2, Fc domain of IgG1
- % weight loss at the lowest point [1, 6]: 0.9%
- Death due to the treatment [1, 6]: 0/5
- % weight loss at the lowest point [1, 7]: 1.1%
- Death due to the treatment [1, 7]: 0/5
- % weight loss at the lowest point [1, 8]: 1.1%
- Death due to the treatment [1, 8]: 0/5
- % weight loss at the lowest point [1, 9]: 2.3%
- Death due to the treatment [1, 9]: 0/5
- % T/C (inhibition of tumor growth at day 24) (MC 13/C mammary tumor; [6]): 32%
- T-C days (delay of tumor growth) (MC 13/C mammary tumor; [6]): 5.2 days
- lck (log cells killed) (MC 13/C mammary tumor; [6]): 0.6
- % T/C (inhibition of tumor growth at day 24) (MC 13/C mammary tumor; [7]): 9%
- T-C days (delay of tumor growth) (MC 13/C mammary tumor; [7]): 12.1 days
- lck (log cells killed) (MC 13/C mammary tumor; [7]): 1.3
- % T/C (inhibition of tumor growth at day 24) (MC 13/C mammary tumor; [8]): 8%
- T-C days (delay of tumor growth) (MC 13/C mammary tumor; [8]): 13.9 days
- lck (log cells killed) (MC 13/C mammary tumor; [8]): 1.5
- % T/C (inhibition of tumor growth at day 24) (MC 13/C mammary tumor; [9]): 4%
- T-C days (delay of tumor growth) (MC 13/C mammary tumor; [9]): 12.7 days
- lck (log cells killed) (MC 13/C mammary tumor; [9]): 1.4
